Earlier results as cited in patent publication US4756910A, “Adriamycin-entrapping liposome preparation” (priority 1985, dated 1988).

COc1cccc2c1C(=O)c1c(O)c3c(c(O)c1C2=O)C[C@@](O)(C(=O)CO)C[C@@H]3O[C@H]1C[C@H](N)[C@H](O)[C@H](C)O1 [Free adriamycin, Adriamycin]
Cardiac toxicity (in words) (background statement): accumulative cardiac toxicity
Disappearance from the blood (in words) (in vivo, iv): rapidly disappears from the blood after intravenous administration
